Data set [1] is classed as in vivo. The settings on record: for Duration of release from the ring: delayed release ring. On the procedure:
The rate of hydration of the intravaginal device depends on many factors, including the rate of water penetration into the polymer. The rate of water penetration can be modulated by the osmotic pressure within the polymer. The osmotic pressure can be modulated by adding salt (NaCl, KCl, etc) to the formulation of the drug.
Estradiol and GnRH can be formulated as described herein. Yet, additional salt is added (300 mmol).

The conditions of data set [2]: endogenous, normal menstrual cycle, cited from earlier work; for Tmax: phase of cycle.
The format of data set [3] is physicochemical. Particulars: for In vitro release kinetics: EVA ring, 70:30 PBS:EtOH pH 6, 37° C., 14 to 21 day period. The procedure: At the indicated time points media was collected and measured by HPLC on an Agilent 1100 Series HPLC (Agilent, Forest City, Calif.). […] Results were calculated based on the area under the curve compared to a 5 point calibration curve. Results were expressed as the cumulative release in μg released over the course of the experiment.

The nature of data set [4]: In vitro release from double-sided EVA disc (Example 6). In kind it is physicochemical. Particulars: 70:30 PBS:EtOH pH 6, 37° C. The procedure:
Also, the EVA/drug mixtures were combined to form a double-sided disc, comprising estradiol on one side and progesterone on the other. After drying, the discs were evaluated for their release kinetics. […] At the indicated time points, 100% of the media was collected for measurement and 100 ml of release media was replaced. The media was measured by an Agilent 1100 Series HPLC (Agilent). […] Results were calculated based on the area under the curve compared to a 5 point calibration curve and depicted in FIG. 7 as the cumulative percent released.

Data set [5] can be described thus: Expected characteristics of Ring A / Ring B formulations (Table II). It is filed as in vivo. Particulars: 21 days of release. The text has this: In an alternate embodiment of this aspect of the invention, the two formulations described above (the LHRH/estrogenic steroid formulation and LHRH/estrogenic/progestational steroid formulation) are combined in one drug delivery device, which is designed to remain in the vagina of the female for the entire menstrual cycle. In this embodiment, the drug delivery device comprises at least one cylindrical unitary segment per hormonal formulation, or, alternatively, at least one cylindrical unitary segment per active ingredient (i.e., LHRH, sex steroid, or sex steroid modulator). The choice of polymeric material and the ratio of polymeric material to LHRH/sex steroid/sex steroid modulator are preselected for each segment to provide the appropriate release kinetics for the individual steroids and/or steroidal formulations. By selecting the polymeric material based on its release properties and adjusting the ratio of polymeric material to drug, the method of the present invention provides the pre-set timed delivery of LHRH, estrogenic steroid, and progestational steroid at the appropriate phase of the menstrual cycle to achieve the desired contraceptive effect. For example, this “combined” device would release LHRH and/or its agonists or antagonists continuously for 30 days in combination with an estrogenic compound.

A short description of data set [6]: Effect of cellulosics (Methocel) on in vitro release from EVA (Example 5). It is filed as physicochemical. The settings on record: EVA with 5% or 25% Methocel, PBS pH 6.10:ethanol 70:30, 37° C. The text has this:
Also, varying amounts of a commercially available cellulosic, Methocel® (Dow Chemicals, Co., Midland, Mich.) were incorporated into the mixtures to evaluate the effect of cellulosics on release kinetics. […] The solutions were slowly emulsified into a methylene chloride solution containing EVA. The resulting emulsions were solvent-casted into a mold, which was then cooled on dry ice. Following sublimation, the […] were cut into 1 cm×1 cm samples, and placed in scintillation vials, to which 0.1 M phosphate buffered saline (pH 6.10) and ethanol were added in a 70:30 ratio. The vials were placed in a 37° C. incubator on a shaker rotating at 100 RPM. The buffer solution was replaced at predetermined time points. […] Next, the release kinetics were determined by plotting the cumulative release amounts as a function of time.

The subject of data set [7] is endogenous luteinizing hormone (LH). Kind of data set: Intravaginal administration of GnRH/hydrogel to Rhesus monkeys, serum endogenous LH (Example 7). In kind it is in vivo. Particulars: 10 mg GnRH in 2 g hydrogel, 48 hours.
The conditions of data set [8]: estradiol administered at 100 μg/day; cited from earlier work.

Where two headings read alike, the source gives them in different places.

Regarding `CCNC(=O)[C@@H]1CCCN1C(=O)[C@H](CCCNC(=N)N)NC(=O)[C@H](CC(C)C)NC(=O)[C@@H](Cc1c[nH]c2ccccc12)NC(=O)[C@H](Cc1ccc(O)cc1)NC(=O)[C@H](CO)NC(=O)[C@H](Cc1c[nH]c2ccccc12)NC(=O)[C@H](Cc1c[nH]cn1)NC(=O)[C@@H]1CCC(=O)N1` [D-Trp6-Pro9-Net-GnRH], the “Duration of release from the ring” value in data set [1] amounted to 28 days.

With `CC(=O)[C@H]1CC[C@H]2[C@@H]3CCC4=CC(=O)CC[C@]4(C)[C@H]3CC[C@]12C` [Progesterone, progesterone], in data set [2], the Cmax was 35 ng/mL, the “Steady State Serum Concentration” value was 2 to 6 ng/mL, the T1/2 is recorded as 12 h and the Tmax result is “Midluteal”. Further, in data set [1], the “Duration of release from the ring” value was determined as 4 days. Besides, the “Time after which release begins” value in data set [1] (segment without salt) was determined as 14 days. Moreover, the “In vitro release kinetics” value in data set [3] was “stable zero order release kinetics”. The “In vitro release kinetics” value in data set [4] was “independent bi-phasic release kinetics”. For the same compound, in data set [5] (Ring B), the “Drug Circulation Level” value was 6000 pg/mL. The “In vitro release kinetics with addition of Methocel” value in data set [6] is “pseudo zero order release kinetics”.

For the compound “p-Glu-His-Trp-Ser-Tyr-Gly-Leu-Arg-Pro-Gly-NH2 [GnRH]”, in data set [3], the “Serum level in the circulation that the delivery rates are capable of producing” value fell in the range of 3 to 6 ng/mL and the “In vitro release kinetics” value is “stable zero order release kinetics”. Further, the “Time for which the ring sustains adequate flux rates” value in data set [3] (not told) is “at least 21 days”. For the same compound, in data set [7], the “Effect on endogenous LH levels” value is listed as “produces elevated levels of endogenous LH”.

As to `C[C@]12CC[C@@H]3c4ccc(O)cc4CC[C@H]3[C@@H]1CC[C@@H]2O` [Estradiol, estradiol], in data set [2], the Cmax is 0.5 ng/mL, the “Steady State Serum Concentration” value was 0.05 to 0.5 ng/mL and the Tmax result was “Midcycle”. For the same compound, the Serum level produced result in data set [8] is on record as “approximately 100 pg/ml”. Besides, the “Drug Circulation Level” value in data set [5] (Ring A) was 100 pg/mL. Moreover, in data set [5] (Ring B), the “Drug Circulation Level” value came to 100 pg/mL.

The values are drawn from patent US20080286339A1, “METHODS AND DEVICES FOR THE SUSTAINED RELEASE OF MULTIPLE DRUGS” (priority 2003, published 2008).
